Measurements taken from article PMC8448163 (Antimicrobial Agents and Chemotherapy, 2021).
“And” between values parts separate entries of the source, which are not always exact repeats. Identical values can stand only once. Like-named read-outs stand apart in the source and are kept apart here.

What was measured:
in vivo [1] = conditions: rat, po
[2] = in vitro
clinical [3] = conditions: human, in vivo
clinical [4] = conditions: human, in vivo; remark: listed apart in the source
[5] = healthy adult males (n = 14), single oral doses 200 mg to 2,000 mg; cited from earlier work
in vivo [6] = conditions: dog, po
[7] = test system: EV panel comprising 47 PV strains and 36 nonpolio EV strains; assay: microbe, parasite or virus in culture; type: cell-based; conditions: Enterovirus, read-out: EC50, mean
CV-A16 = assay: microbe, parasite or virus in culture; type: cell-based; conditions: Enterovirus A, CVA16
healthy adult volunteers [8] = assay: Phase 1 MAD study, safety and tolerability
poliovirus = conditions: in vitro, in combination with capsid inhibitors including pocapavir; cited from earlier work
ECV-11 isolates = assay: organism not typed; type: cell-based; conditions: read-out: EC50, range
[9] = for mean and individual trough concentrations: LLOQ 1.00 ng/ml; for time of peak of mean plasma concentration: MAD BID
healthy adult volunteers [10] = assay: Phase 1 SAD study, safety and tolerability
[11] = SAD, 10-fold increase in dose from 200 mg to 2,000 mg
[12] = MAD, one participant, 2,000 mg BID cohort, day 7, normal two days later

## C#CC[C@@H](C(=O)N[C@H](/C=C/C(=O)OCC)C[C@@H]1CCNC1=O)n1cccc(NC(=O)c2cc(C)on2)c1=O [V-7404]
In vivo [1]
  NOAEL: 1500 mg/kg/day
[2]
  genotoxicity study results: negative
Clinical [3]
  Tmax: 15 to 37.8 min
Clinical [3]; po, 200 mg, AUC (AUC0–inf)
  AUC(0-inf): 77.4 ng·h/mL
Clinical [3]; po, 200 mg, Cmax
  Cmax: 83.3 ng/mL
Clinical [3]; po, 200 mg, Vz/F
  Vd/F: 1170 L
Clinical [3]; po, 200 mg, t1/2
  half-life: 18.9 min
Clinical [3]; po, 200 mg, tmax
  Tmax: 30 min
Clinical [3]; t1/2, range across cohorts
  half-life: 19.2 to 140 min
Clinical [4]
  Tmax: 15 to 30 min
Clinical [4]; Vz/F
  Vd/F: 3780 L
Clinical [4]; po, 500 mg, AUC (AUC0–tau)
  AUC: 302 ng·h/mL
Clinical [4]; po, 500 mg, Cmax
  Cmax: 247 ng/mL
  Cmax at 14 days: 370 ng/mL
Clinical [4]; po, 500 mg, Vz/F
  Vd/F at 14 days: 3020 L
Clinical [4]; po, 500 mg, tmax
  Tmax: 28.8 min
  Tmax at 14 days: 15 min
Clinical [4]; t1/2
  half-life: 79.2 min
Clinical [4]; tmax(0–4 h)
  Tmax: 30 min
Clinical [4]; tmax(4–24 h)
  Tmax: 45 min
[5]
  tolerability: well tolerated with no serious adverse events (SAEs)
In vivo [6]
  NOAEL: 1500 mg/kg/day
SAD 500 mg
  geometric mean AUC0–inf lower for fed compared to fasted: 50%
  geometric mean Cmax lower for fed compared to fasted: 66%
[11]
  increase of geometric mean AUC0–inf: 14.2 fold
  increase of geometric mean Cmax: 7.6 fold
human, in vivo
  time of peak of mean plasma concentrations: 0.25 to 0.75 h
human, in vivo, po, 500 mg
  Cmax: 366.6 ng/mL
[7]
  EC50: 379 nM and 0.198 µg/mL
CV-A16
  EC50: 5.99 µM
Healthy adult volunteers [8]; MAD study
  deaths or SAEs: No deaths or SAEs were reported
Healthy adult volunteers [8]; MAD, 1,000 mg QD
  proportion of related TEAEs: 12.5%
Healthy adult volunteers [8]; MAD, 2,000 mg BID
  proportion of related TEAEs: 75%
Healthy adult volunteers [8]; MAD, 2,000 mg BID cohort, 1/41 participants
  participants with increased lipase levels (asymptomatic) leading to discontinuation: 2.4%
Healthy adult volunteers [8]; MAD, 2,000 mg QD
  proportion of related TEAEs: 22.2%
Healthy adult volunteers [8]; MAD, V-7404 group, 2/33 participants
  participants with moderate TEAEs: 6.1%
Healthy adult volunteers [8]; MAD, V-7404 group, 10/33 participants
  participants with mild TEAEs: 30.3%
Healthy adult volunteers [8]; [12]
  amylase: 2.7 × ULN
  lipase: 4.5 × ULN
poliovirus
  activity in combination with antiviral capsid inhibitors: synergistic activity
ECV-11 isolates
  EC50: 0.032 to 0.352 µM
[9]; MAD 500 mg QD, days 2, 3, 7, 11 and 14
  mean and individual trough concentrations: BLQ
[9]; MAD 1,000 mg QD, days 2, 3, 7, 11 and 14
  mean and individual trough concentrations: BLQ
[9]; MAD 2,000 mg BID, day 14
  accumulation (RAUC and RCmax): no accumulation
[9]; MAD 2,000 mg BID, days 2, 3, 7, 11 and 14
  mean trough concentrations: either BLQ or were less than twice the LLOQ of 1.00 ng/ml
[9]; following the first dose of the day
  time of peak of mean plasma concentration: 0.50 h
[9]; following the second dose of the day, day 1
  time of peak of mean plasma concentration: 0.75 h
[9]; following the second dose of the day, day 14
  time of peak of mean plasma concentration: 0.50 h
[9]; MAD QD, day 14, all dose levels
  RAUC and RCmax, all ratios: less than 1.5
[9]; MAD, 2,000 mg QD
  mean trough concentrations: either BLQ or were less than twice the lower limit of quantification (LLOQ) of 1.00 ng/ml
[9]; human, in vivo
  CL/F: 1,987 liters/h
  CLss/F: 2125 L/h
  Vz/F: 6542 L
  t1/2: 136.2 min
[9]; human, in vivo, po, 500 mg
  CL/F: 2,076 liters/h
  CL/F (CLss/F): 1,656 liters/h
Healthy adult volunteers [10]; SAD study
  deaths or SAEs: No deaths or SAEs were reported
Healthy adult volunteers [10]; SAD, V-7404 group, 1/24 participants
  participants with moderate TEAEs: 4.2%
Healthy adult volunteers [10]; SAD, V-7404 group, 4/24 participants
  participants with mild treatment-emergent AEs (TEAEs): 16.7%
Healthy adult volunteers [10]; SAD, one participant, 1,000 mg cohort, day 2, asymptomatic, normal 3 days later
  elevated lipase: 4.0 × the upper limit of normal (U
